Patent US7378397B2 (The Provost, Fellows and Scholars of the College of the …, priority 2000, dated 2008)
In brackets after ≈: the same amount, converted by molar mass. Where a SMILES comes first, the peptide text is derived from it. [ ]: non-standard residue; d: D form. pGlu = O=C1CC[C@@H](C(=O)O)N1

Key:
Male Wistar rats = assay: behavioural effects (activity score, WDS, locomotion) after i.p. administration; type: in vivo, rat
Procedure: Methods: Behavioural studies were conducted using experimentally naïve Male Wistar rats (200-250 g) maintained in a temperature controlled (21° C.), artificially-lighted (12 hr light cycle) room with free access to food and water. Behavioural effects of TRH±TRH-DE inhibitor following intraperitoneal (i.p.) administration: On the day of the experiment, animals were singly housed in perspex cages (30×20×20 cm) and allowed to acclimatize for 20 min. After this period, two baseline measurements of behaviour were made at 10 and 5 min prior to administration of drugs. […] Animals were then observed by two independent observers who were blind to treatment, every 5 min for 30 sec. Blocks of 5 animals were treated at a time, 1 per drug group. Blocks were repeated 5 times. The occurrence of individual behaviours were noted using a behavioural check list, which included grooming, locomotion, rearing, chewing, sniffing, head weave, tail elevation, and/or straub tail and WDS behaviours. These behaviours were summed to yield an overall activity count. Animals were videotaped for separate subsequent analysis of WDS. All WDS behaviours occurring during each 5 min interval after drug administration were counted. The statistical significance of differences between behavioural effects of treatments was determined using the Student's t-test or ANOVA, followed by a post-ANOVA test, as indicated. Radioligand binding data were analysed using non-linear curve fitting software (Prism, Graph Pad Software Inc.). IC50 values calculated from competition experiments were converted to Ki values using the Cheng-Prusoff (41) equation Ki=IC50/(1+L/Kd), where L=ligand concentration and Kd=the apparent dissociation constant for [^3[…].

[1] = molecular target: TRH receptors in rat cortical membranes; assay: radioligand binding to ^3H-3MeHis-TRH-labelled receptors in rat cortex; settings: competition with 6-8 nM ^3H-3MeHis-TRH, Cheng-Prusoff
Procedure: Evaluation of the ability of TRH, Glp-Asn-ProNH2, and Glp-Asn-ProAMC to bind to ^3H-3MeHis-TRH-labelled receptors in rat cortex: Radioligand binding assays were conducted to investigate the possibility that the two TRH-DE inhibitors might exert their effects by acting independently at TRH receptors in the brain.
Cortex tissue from male Sprague-Dawley rats (250 g) was dissected out, weighed and homogenised in 30 volumes of ice-cold sodium phosphate buffer (0.02 M, pH 7.5). The homogenates were centrifuged at 30,000 g at 4° C. for 30 min. The supernatant was discarded and the pellet was resuspended at 100 mg wet wt/ml in buffer containing 177 μM bacitracin. […] Non-specific binding was defined in the presence of 10 μM TRH.
The statistical significance of differences between behavioural effects of treatments was determined using the Student's t-test or ANOVA, followed by a post-ANOVA test, as indicated. Radioligand binding data were analysed using non-linear curve fitting software (Prism, Graph Pad Software Inc.). IC50 values calculated from competition experiments were converted to Ki values using the Cheng-Prusoff (41) equation Ki=IC50/(1+L/Kd), where L=ligand concentration and Kd=the apparent dissociation constant for [^3H]-[3-MeHis]TRH.

- pKi [1]: 5.15±0.24
- solubility (physchem): 1000 µg/mL (≈ 2950 µM)
Compound: NC(=O)C[C@H](NC(=O)[C@@H]1CCC(=O)N1)C(=O)N1CCC[C@H]1C(N)=O [Glp-Asn-ProNH2, pyroglutamyl-asparaginyl-prolineamide] ([pGlu]-Asn-Pro-NH2)
- increase in locomotion (Male Wistar rats; i.p. administration, 10 mg/kg): not detected
- rat activity scores compared with saline (Male Wistar rats; i.p., 10 mg/kg each, 40 min post injection): significantly increased activity counts
